Data published in the supplement of paper PMC11061612.

Legend:
Assay in all cases: combination Emax (second highest fraction inhibited in the dose matrix, 72 h); higher = more inhibition; extreme values may be limits of the assay
[1] = tested on: NCI-H322M (Lung Adenocarcinoma)
Method in brief: (§1)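 Cell lines grown in DMEM/F12 or RPMI with 10% FBS were plated in 1536-well plates and held 24 hours at 37°C, 5% CO2 before 72 hours of exposure to two-drug dose matrices, with DMSO typically at 0.2%. CellTiter-Glo 2.0 luminescence gave viability, which was converted to inhibition. Vehicle wells were set to 0 and blank wells to 1. Combination Emax is the second-highest inhibition in the matrix, and Bliss excess is the observed combination effect minus the expected EA + EB − EA·EB, where EA and EB are the single-agent effects.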

[2] = tested on: OCUM-1 (Gastric Carcinoma)
Method in brief: as §1

GOTO (Neuroblastoma) = tested on: GOTO (Neuroblastoma)
Method in brief: as §1

[3] = tested on: PFSK-1 (Other Solid Carcinomas)
Method in brief: as §1

[4] = tested on: SCC-3 (B-Cell Non-Hodgkin's Lymphoma)
Method in brief: as §1

BT-20 (Breast Carcinoma) = tested on: BT-20 (Breast Carcinoma)
Method in brief: as §1

[5] = tested on: DG-75 (Burkitt's Lymphoma)
Method in brief: as §1

[6] = tested on: NCI-H513 (Other Solid Carcinomas)
Method in brief: as §1

NH-12 (Neuroblastoma) = tested on: NH-12 (Neuroblastoma)
Method in brief: as §1

[7] = tested on: PF-382 (T-Lymphoblastic Leukemia)
Method in brief: as §1

[8] = tested on: HC-1 (Other Blood Carcinomas)
Method in brief: as §1

[9] = tested on: NCI-H2347 (Lung Adenocarcinoma)
Method in brief: as §1

[10] = tested on: KLE (Endometrial Carcinoma)
Method in brief: as §1

[11] = tested on: ASH-3 (Thyroid Gland Carcinoma)
Method in brief: as §1

EW-18 (Ewing's Sarcoma) = tested on: EW-18 (Ewing's Sarcoma)
Method in brief: as §1

U-87-MG (Glioblastoma) = tested on: U-87-MG (Glioblastoma)
Method in brief: as §1

EW-13 (Ewing's Sarcoma) = tested on: EW-13 (Ewing's Sarcoma)
Method in brief: as §1

[12] = tested on: OCUB-M (Breast Carcinoma)
Method in brief: as §1

NB7 (Neuroblastoma) = tested on: NB7 (Neuroblastoma)
Method in brief: as §1

[13] = tested on: TGBC11TKB (Gastric Carcinoma)
Method in brief: as §1

Row | SMILES | combination Emax [1] | combination Emax [2] | combination Emax (GOTO (Neuroblastoma)) | combination Emax [3] | combination Emax [4] | combination Emax (BT-20 (Breast Carcinoma)) | combination Emax [5] | combination Emax [6] | combination Emax (NH-12 (Neuroblastoma)) | combination Emax [7] | combination Emax [8] | combination Emax [9] | combination Emax [10] | combination Emax [11] | combination Emax (EW-18 (Ewing's Sarcoma)) | combination Emax (U-87-MG (Glioblastoma)) | combination Emax (EW-13 (Ewing's Sarcoma)) | combination Emax [12] | combination Emax (NB7 (Neuroblastoma)) | combination Emax [13]
1 | CN(CCO)CC[C@H](CSc1ccccc1)Nc1ccc(S(=O)(=O)NC(=O)c2ccc(N3CCC([C@@H](O)c4ccccc4-c4ccc(Cl)cc4)CC3)cc2)cc1S(=O)(=O)C(F)(F)F [AZD4320] + CCN(CCO)CCCOc1ccc2c(Nc3cc(CC(=O)Nc4cccc(F)c4)[nH]n3)ncnc2c1 [AZD2811] (first compound max 1 µM, 7x7, partner max 1 µM) | 0.0611 | 0.924 | 0.649 | 0.319 | 0.316 | 0.653 | 0.196 | 0.13 | 0.962 | 1 | 0.969 | 0.476 | 0.297 | 0.619 | 0.888 | 0.253 | 0.754 | 0.874 | 0.267 | 0.439
2 | CC1(C)CCC(CN2CCN(c3ccc(C(=O)NS(=O)(=O)c4ccc(NCC5CCOCC5)c([N+](=O)[O-])c4)c(Oc4cnc5[nH]ccc5c4)c3)CC2)=C(c2ccc(Cl)cc2)C1 [Venetoclax] + C1CN(CCC1(C(=O)N[C@@H](CCO)C2=CC=C(C=C2)Cl)N)C3=NC=NC4=C3C=CN4 [Capivasertib] (first compound max 1 µM, 7x7, partner max 3 µM) | 0.167 | 0.314 | 0.365 | 0.518 | 0.131 | 0.62 | 0.179 | 0.117 | 0.612 | 0.518 | 0.452 | 0.158 | 0.315 | 0.285 | 0.662 | 0.403 | 0.213 | 0.942 | 0.056 | 0.153
3 | COc1nnc2ccc(N3CCC(c4ccc(OCCN5CCN(C)C(=O)[C@H]5C)cc4)CC3)nn12 [AZD5153] + Cc1c2c(nn1C)CSCc1cc(n(C)n1)CSc1cc(c3ccccc3c1)OCCCc1c(C(=O)O)n(C)c3c-2c(Cl)ccc13 [AZD5991] (first compound max 1 µM, 7x7, partner max 1 µM) | 0.539 | 0.581 | 0.919 | 0.982 | 0.997 | 0.787 | 0.876 | 0.423 | 0.672 | 0.986 | 0.753 | 0.39 | 0.668 | 0.88 | 0.938 | 0.559 | 0.68 | 1 | 0.875 | 0.789
4 | CN(CCO)CC[C@H](CSc1ccccc1)Nc1ccc(S(=O)(=O)NC(=O)c2ccc(N3CCC([C@@H](O)c4ccccc4-c4ccc(Cl)cc4)CC3)cc2)cc1S(=O)(=O)C(F)(F)F [AZD4320] + C[C@@H](Nc1cc(F)cc(F)c1)c1cc(C(=O)N(C)C)cc2c(=O)cc(N3CCOCC3)oc12 [AZD8186] (first compound max 1 µM, 7x7, partner max 3 µM) | 0.506 | 0.884 | 0.831 | 0.471 | 0.543 | 0.614 | 0.286 | 0.342 | 0.998 | 1 | 0.965 | 0.698 | 0.61 | 0.682 | 0.914 | 0.527 | 0.911 | 0.835 | 0.49 | 0.338
5 | Cn1cnc2c(F)c(Nc3ccc(Br)cc3Cl)c(C(=O)NOCCO)cc21 [Selumetinib] + C=CCn1c(=O)c2cnc(Nc3ccc(N4CCN(C)CC4)cc3)nc2n1-c1cccc(C(C)(C)O)n1 [AZD1775] (first compound max 10 µM, partner max 1 µM) | 0.861 | 0.944 | 0.928 | 0.659 | 0.896 | 0.695 | 0.634 | 0.406 | 0.891 | 0.974 | 0.941 | 0.468 | 0.539 | 0.367 | 0.526 | 0.252 | 0.0949 | 0.0588 | 0.619 | 0.912
6 | COc1nnc2ccc(N3CCC(c4ccc(OCCN5CCN(C)C(=O)[C@H]5C)cc4)CC3)nn12 [AZD5153] + C[C@@H]1COCCN1C2=NC(=NC(=C2)C3(CC3)[S@](=N)(=O)C)C4=C5C=CNC5=NC=C4 [AZD6738] (first compound max 1 µM, 7x7, partner max 10 µM) | 0.865 | 0.641 | 0.979 | 0.648 | 0.986 | 0.399 | 0.909 | 0.523 | 0.938 | 1 | 0.713 | 0.525 | 0.737 | 0.852 | 0.781 | 0.698 | 0.831 | 0.735 | 0.589 | 0.801
7 | CC(=O)c1c(C)c2cnc(Nc3ccc(N4CCNCC4)cn3)nc2n(C2CCCC2)c1=O [Palbociclib] + CC1(C)CCC(CN2CCN(c3ccc(C(=O)NS(=O)(=O)c4ccc(NCC5CCOCC5)c([N+](=O)[O-])c4)c(Oc4cnc5[nH]ccc5c4)c3)CC2)=C(c2ccc(Cl)cc2)C1 [Venetoclax] (first compound max 10 µM, 7x7, partner max 1 µM) | 0.492 | 0 | 0.802 | 0.235 | 0.378 | 0.0933 | 0.705 | 0.0783 | 0.592 | 0.633 | 0.611 | 0.14 | 0.203 | 0.283 | 0.656 | 0.29 | 0.0985 | 0.0811 | 0.191 | 0.142
8 | COc1nnc2ccc(N3CCC(c4ccc(OCCN5CCN(C)C(=O)[C@H]5C)cc4)CC3)nn12 [AZD5153] + CCN(CCO)CCCOc1ccc2c(Nc3cc(CC(=O)Nc4cccc(F)c4)[nH]n3)ncnc2c1 [AZD2811] (first compound max 1 µM, 7x7, partner max 1 µM) | 0.507 | 0.581 | 0.858 | 0.574 | 0.9 | 0.185 | 0.892 | 0.375 | 0.739 | 0.98 | 0.572 | 0.385 | 0.674 | 0.78 | 0.768 | 0.603 | 0.362 | 0.69 | 0.441 | 0.311
9 | CS(=O)(=O)CCNCc1ccc(-c2ccc3ncnc(Nc4ccc(OCc5cccc(F)c5)c(Cl)c4)c3c2)o1 [Lapatinib] + C[C@@H](Oc1cc(-c2cnn(C3CCNCC3)c2)cnc1N)c1c(Cl)ccc(F)c1Cl [Crizotinib] (first compound max 10 µM, 7x7, partner max 10 µM) | 0.876 | 0.596 | 1 | 0.956 | 0.999 | 0.652 | 0.92 | 0.557 | 0.873 | 0.978 | 0.898 | 0.301 | 0.51 | 0.908 | 0.951 | 0.613 | 0.285 | 0.697 | 0.565 | 0.622
10 | CC1(C)CCC(CN2CCN(c3ccc(C(=O)NS(=O)(=O)c4ccc(NCC5CCOCC5)c([N+](=O)[O-])c4)c(Oc4cnc5[nH]ccc5c4)c3)CC2)=C(c2ccc(Cl)cc2)C1 [Venetoclax] + C=CCn1c(=O)c2cnc(Nc3ccc(N4CCN(C)CC4)cc3)nc2n1-c1cccc(C(C)(C)O)n1 [AZD1775] (first compound max 1 µM, partner max 1 µM) | 0.862 | 0.653 | 0.921 | 0.72 | 0.903 | 0.672 | 0.833 | 0.47 | 0.952 | 0.986 | 1 | 0.291 | 0.51 | 0.294 | 0.587 | 0.265 | 0.129 | 0.754 | 0.722 | 0.942
11 | CN(CCO)CC[C@H](CSc1ccccc1)Nc1ccc(S(=O)(=O)NC(=O)c2ccc(N3CCC([C@@H](O)c4ccccc4-c4ccc(Cl)cc4)CC3)cc2)cc1S(=O)(=O)C(F)(F)F [AZD4320] + C1CN(CCC1(C(=O)N[C@@H](CCO)C2=CC=C(C=C2)Cl)N)C3=NC=NC4=C3C=CN4 [Capivasertib] (first compound max 1 µM, 7x7, partner max 3 µM) | 0.0734 | 0.861 | 0.378 | 0.568 | 0.257 | 0.84 | 0.266 | 0.122 | 0.886 | 0.98 | 0.616 | 0.362 | 0.206 | 0.59 | 0.875 | 0.311 | 0.677 | 1 | 0.0214 | 0.182
12 | NC1(C(=O)N[C@@H](CCO)c2ccc(Cl)cc2)CCN(c2ncnc3[nH]ccc23)CC1 [Capivasertib] + COc1nnc2ccc(N3CCC(c4ccc(OCCN5CCN(C)C(=O)[C@H]5C)cc4)CC3)nn12 [AZD5153] (first compound max 10 µM, 7x7, partner max 1 µM) | 0.615 | 0.596 | 0.802 | 0.581 | 0.827 | 0.813 | 0.884 | 0.416 | 0.634 | 1 | 0.664 | 0.314 | 0.639 | 0.831 | 0.787 | 0.671 | 0.636 | 0.998 | 0.762 | 0.253
